#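 In this assay, cells in 96-well plates receive the compound at five concentrations for 48 hours. Endpoints are linearly interpolated between the surrounding concentrations. Here, GI50 denotes the concentration required for 50% inhibition of growth. TGI is the concentration that stops growth completely.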
# Assays:
# Assay in all cases: DTP human tumour cell line panel, 48 h
# [1] = system: RPMI-8226 leukemia
# [2] = system: NCI/ADR-RES ovarian
# [3] = system: SF-295 CNS
# [4] = system: MOLT-4 leukemia
# [5] = system: EKVX NSCLC
# [6] = system: SNB-75 CNS
# [7] = system: UO-31 renal
# [8] = system: T-47D breast
# [9] = system: UACC-62 melanoma
# [10] = system: SNB-19 CNS
# [11] = system: CAKI-1 renal
# [12] = system: HOP-62 NSCLC
# [13] = system: NCI-H522 lung
# [14] = system: SK-MEL-2 melanoma
# [15] = system: A549 NSCLC
# [16] = system: HOP-92 NSCLC
# [17] = system: HT29 colon
# [18] = system: SK-MEL-5 melanoma
# [19] = system: NCI-H226 lung
# [20] = system: K-562 leukemia
# [21] = system: OVCAR-8 ovarian
# [22] = system: SN12C renal
# [23] = system: PC-3 prostate
# [24] = system: COLO 205 colon
# [25] = system: MCF7 breast
# [26] = system: SK-MEL-28 melanoma
# [27] = system: OVCAR-4 ovarian
# [28] = system: KM12 colon
# [29] = system: NCI-H460 lung
smiles,measurement,setting,value
O=S1CCN(Cc2ccc(-c3ccc4ncnc(Nc5ccc(OCc6ccccc6)c(Cl)c5)c4c3)o2)CC1,GI50,[1],12.4 µM
same,TGI,[1],> 25 µM
same,GI50,[2],8.08 µM
same,TGI,[2],> 25 µM
same,GI50,[3],9.76 µM
same,TGI,[3],> 25 µM
same,GI50,[4],9.06 µM
same,TGI,[4],> 25 µM
same,GI50,[5],0.112 µM
same,TGI,[5],> 19.9 µM
same,GI50,[6],> 16.6 µM
same,TGI,[6],> 25 µM
same,GI50,[7],6.32 µM
same,TGI,[7],> 25 µM
same,GI50,[8],5.72 µM
same,TGI,[8],> 25 µM
same,GI50,[9],10.7 µM
same,TGI,[9],> 23.4 µM
same,GI50,[10],> 25 µM
same,TGI,[10],> 25 µM
same,GI50,[11],0.635 µM
same,TGI,[11],> 25 µM
same,GI50,[12],> 25 µM
same,TGI,[12],> 25 µM
same,GI50,[13],3.68 µM
same,TGI,[13],> 25 µM
same,GI50,[14],7.46 µM
same,TGI,[14],16.7 µM
same,GI50,[15],8.02 µM
same,TGI,[15],> 25 µM
same,GI50,[16],4.91 µM
same,TGI,[16],> 21.2 µM
same,GI50,[17],6.9 µM
same,TGI,[17],> 18.8 µM
same,GI50,[18],7.9 µM
same,TGI,[18],> 15.7 µM
same,GI50,[19],> 16.5 µM
same,TGI,[19],> 25 µM
same,GI50,[20],10.1 µM
same,TGI,[20],> 25 µM
same,GI50,[21],11.7 µM
same,TGI,[21],> 25 µM
same,GI50,[22],14.8 µM
same,TGI,[22],> 25 µM
same,GI50,[23],11.8 µM
same,TGI,[23],> 25 µM
same,GI50,[24],11.7 µM
same,TGI,[24],> 25 µM
same,GI50,[25],> 15.2 µM
same,TGI,[25],> 25 µM
same,GI50,[26],14 µM
same,TGI,[26],> 25 µM
same,GI50,[27],13.5 µM
same,TGI,[27],> 25 µM
same,GI50,[28],9.22 µM
same,TGI,[28],> 25 µM
same,GI50,[29],10.2 µM
same,TGI,[29],> 25 µM
